In ChEMBL document CHEMBL1201862, “PubChem BioAssay data set” (2004):
The source made the active and inactive calls.

Key:
[1] = M. tuberculosis H37Rv growth inhibitors, H37Rv strain (AID 1626); assay type: functional
[2] = IC50 of Artemis nuclease activity blockers – biochemical, fluorescence intensity, dose response (AID 720701); assay type: functional;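 also: Artemis endonuclease enzyme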
H9c2 = experiment: cells; assay type: functional, cell-based; conditions: Rattus norvegicus, H9c2, Myocardium;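 also: confirmatory concentration-response retest of ultra-high-throughput screening hits for modulation of myocardial damage; cell death induced by hydrogen peroxide oxidative stress; compound pretreatment for 60 min then peroxide exposure for 2 h; potency is for protecting the cells against peroxide damage rather than for killing them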
[3] = reduced cellular PGC1a acetyl-lysine signal – cell-based, cherry-picked samples, dose response (AID 720514); assay type: functional;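 also: potency may reflect raised or lowered acetylation signal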
[4] = Trypanosoma cruzi growth suppression in host cells – NIH3T3 host cells, beta-gal luminescence, confirmation (AID 2044); assay type: functional, cell-based;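 also: intracellular parasites grown in NIH/3T3 mouse fibroblasts as host cells; luminescent beta-galactosidase reporter signal from transgenic T. cruzi replicating inside host cells; inhibitors lower the luminescence signal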
[5] = non-specific 3'UTR reporter inhibition in Clone20-Shn3RL – cell-based, Renilla luciferase, cherry-picked, counter-screen for Shn3 inhibitor project, dose response (AID 624133); assay type: functional
[6] = biological target: Heat shock protein HSP 90-alpha (Homo sapiens, UniProt P07900); assay type: functional, organism-based
[7] = biological target: T1, COUP transcription factor 2 (Homo sapiens, UniProt P24468); experiment: Luminescence-based cell-based high throughput dose response assay to identify inhibitors of COUP-TFII (NR2F2).; assay type: functional;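 also: HEK293 cells transiently cotransfected with COUP-TFII expression vector and reporter; luciferase reporter luminescence driven by COUP-TFII from the pX2-168 reporter plasmid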
T1 sequence (P24468 whole entry): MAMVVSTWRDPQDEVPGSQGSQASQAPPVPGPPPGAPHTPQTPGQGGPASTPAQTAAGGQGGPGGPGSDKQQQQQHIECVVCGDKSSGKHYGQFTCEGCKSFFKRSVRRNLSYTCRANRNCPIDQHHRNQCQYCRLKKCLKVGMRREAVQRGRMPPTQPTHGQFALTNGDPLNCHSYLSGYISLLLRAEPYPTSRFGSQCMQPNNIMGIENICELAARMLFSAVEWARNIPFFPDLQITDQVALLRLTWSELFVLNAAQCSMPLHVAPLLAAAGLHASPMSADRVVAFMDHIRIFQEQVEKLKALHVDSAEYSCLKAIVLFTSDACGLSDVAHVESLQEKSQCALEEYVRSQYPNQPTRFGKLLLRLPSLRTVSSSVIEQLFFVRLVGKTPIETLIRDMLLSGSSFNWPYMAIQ

[8] = biological target: T2, Heat shock factor protein 1 (Mus musculus, UniProt P38532); experiment: decrease of HSF1-responsive luciferase luminescence – cell-based, NIH3T3, dose retest, confirmation (AID 2382); assay type: functional;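 also: NIH3T3 fibroblasts with HSF1-driven luciferase reporter stressed by proteasome inhibitor MG132; luminescence from HSF1-driven luciferase expression after 8 hours of MG132 stress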
T2 sequence (P38532 whole entry): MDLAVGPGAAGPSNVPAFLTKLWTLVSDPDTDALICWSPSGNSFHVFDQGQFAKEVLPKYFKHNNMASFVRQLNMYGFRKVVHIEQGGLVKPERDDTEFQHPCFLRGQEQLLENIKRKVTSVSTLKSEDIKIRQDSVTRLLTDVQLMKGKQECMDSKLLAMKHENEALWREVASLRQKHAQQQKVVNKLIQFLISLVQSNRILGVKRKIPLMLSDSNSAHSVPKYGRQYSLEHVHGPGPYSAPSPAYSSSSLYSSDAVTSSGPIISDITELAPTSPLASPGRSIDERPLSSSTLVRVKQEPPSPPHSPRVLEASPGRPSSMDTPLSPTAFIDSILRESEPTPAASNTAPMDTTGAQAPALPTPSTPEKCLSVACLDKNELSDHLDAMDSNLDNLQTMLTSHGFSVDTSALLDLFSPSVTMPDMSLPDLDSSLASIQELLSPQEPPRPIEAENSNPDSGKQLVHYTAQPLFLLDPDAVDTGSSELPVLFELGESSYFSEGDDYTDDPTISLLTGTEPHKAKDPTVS

[9] = loss of viability in HepG2 cells – cell-based, CellTiter-Glo, cherry-picked, cytotoxicity control for Shn3 inhibitor project, dose response (AID 624134); assay type: functional
Vero [10] = experiment: inhibition of WNV-induced cytopathic effect – cell-based, CPE readout (AID 1621); assay type: functional; conditions: Chlorocebus sabaeus
[11] = reduction of Shn3 3'UTR-driven luciferase in osteoblasts – cell-based, Clone20 osteoblasts, firefly luciferase, cherry-picked, dose response (AID 624132); assay type: functional;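 also: firefly luciferase luminescence from reporter carrying the Shn3 3'UTR in osteoblasts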
Vero [12] = experiment: mammalian cell viability reduction – secondary assay, cytotoxicity control for West Nile virus antiviral project, dose response (AID 1650); assay type: functional; conditions: Chlorocebus sabaeus
[13] = HIV-1 Vif–A3G interaction blockers – biochemical, TR-FRET, GST-Vif 1-94, biotin-A3G peptide, dose response retest, primary screen (AID 1117319); assay type: functional;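 also: TR-FRET signal of purified GST-Vif binding a biotinylated A3G peptide; inhibitors lower the FRET signal by blocking Vif and A3G binding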
Coagulation factor XII = biological target: T3, Coagulation factor XII (Homo sapiens, UniProt P00748); assay type: functional;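 also: activated factor XIIa alpha cleaving a fluorogenic AMC peptide substrate; inhibitor potency from loss of enzyme activity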
T3 sequence (P00748 whole entry): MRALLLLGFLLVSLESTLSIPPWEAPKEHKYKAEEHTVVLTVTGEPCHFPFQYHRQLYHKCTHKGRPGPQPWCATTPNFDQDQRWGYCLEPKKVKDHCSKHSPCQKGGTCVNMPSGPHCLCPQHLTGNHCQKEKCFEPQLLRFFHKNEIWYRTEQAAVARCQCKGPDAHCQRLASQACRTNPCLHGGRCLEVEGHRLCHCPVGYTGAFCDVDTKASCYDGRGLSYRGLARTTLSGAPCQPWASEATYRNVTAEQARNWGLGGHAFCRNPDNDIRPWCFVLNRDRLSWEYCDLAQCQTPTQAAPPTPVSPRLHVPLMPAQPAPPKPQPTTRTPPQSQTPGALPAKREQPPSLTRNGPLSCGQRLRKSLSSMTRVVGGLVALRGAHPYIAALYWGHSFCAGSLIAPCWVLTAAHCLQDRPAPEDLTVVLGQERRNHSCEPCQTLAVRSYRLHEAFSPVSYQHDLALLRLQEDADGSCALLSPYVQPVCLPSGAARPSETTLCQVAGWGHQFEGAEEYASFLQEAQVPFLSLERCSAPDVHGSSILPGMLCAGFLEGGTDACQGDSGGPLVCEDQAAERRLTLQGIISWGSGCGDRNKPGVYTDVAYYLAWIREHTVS

[14] = biological target: T4, Lytic switch protein BZLF1 (Epstein-Barr virus (strain B95-8) (HHV-4) (Human herpesvirus 4), UniProt P03206); experiment: inhibition of BZLF1 ZTA DNA binding – biochemical, fluorescence polarization, Epstein-Barr virus, 1536-well, counter-screen for EBNA-1 inhibitor project, dose response (AID 2377); parameters: species or system human gammaherpesvirus 4;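 also: fluorescence polarization of Cy5-labelled ZRE DNA probe bound by purified Zta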
T4 sequence (P03206 whole entry): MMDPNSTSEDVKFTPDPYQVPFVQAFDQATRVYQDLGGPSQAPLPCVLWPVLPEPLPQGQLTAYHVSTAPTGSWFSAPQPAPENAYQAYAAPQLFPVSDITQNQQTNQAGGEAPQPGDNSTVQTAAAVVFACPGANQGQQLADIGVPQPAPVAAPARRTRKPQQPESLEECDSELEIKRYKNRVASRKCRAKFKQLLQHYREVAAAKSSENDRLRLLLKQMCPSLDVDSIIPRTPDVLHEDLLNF

[15] = biological target: T5, Epstein-Barr nuclear antigen 1 (Epstein-Barr virus (strain B95-8) (HHV-4) (Human herpesvirus 4), UniProt P03211); experiment: inhibition of EBV nuclear antigen 1 DNA binding – biochemical, fluorescence polarization, 1536-well, dose response (AID 2381); parameters: species or system human gammaherpesvirus 4;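 also: fluorescence polarization of a Cy5 DNA probe bound by EBNA-1 protein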
T5 sequence (P03211 whole entry): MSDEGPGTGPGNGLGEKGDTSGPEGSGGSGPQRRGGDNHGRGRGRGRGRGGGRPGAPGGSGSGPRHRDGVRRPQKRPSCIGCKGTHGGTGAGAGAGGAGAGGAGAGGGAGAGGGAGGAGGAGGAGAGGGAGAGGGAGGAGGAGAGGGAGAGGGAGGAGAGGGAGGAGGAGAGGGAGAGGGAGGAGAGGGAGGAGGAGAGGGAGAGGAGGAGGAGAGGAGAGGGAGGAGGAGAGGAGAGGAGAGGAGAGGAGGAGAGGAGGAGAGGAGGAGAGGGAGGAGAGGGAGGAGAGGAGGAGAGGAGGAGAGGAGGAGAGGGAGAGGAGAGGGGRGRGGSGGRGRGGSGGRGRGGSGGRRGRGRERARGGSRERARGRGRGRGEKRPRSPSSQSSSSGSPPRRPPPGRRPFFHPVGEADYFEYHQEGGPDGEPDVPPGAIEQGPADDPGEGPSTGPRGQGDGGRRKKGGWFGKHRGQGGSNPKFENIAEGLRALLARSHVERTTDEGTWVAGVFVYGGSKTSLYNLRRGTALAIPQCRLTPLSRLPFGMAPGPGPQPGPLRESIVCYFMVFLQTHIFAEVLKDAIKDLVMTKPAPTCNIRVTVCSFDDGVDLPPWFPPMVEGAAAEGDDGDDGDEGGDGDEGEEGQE

[16] = viability loss in Vero cells – cytotoxicity control for Vif-APOBEC3G degradation inhibitor project, dose response (AID 1117358); assay type: functional; conditions: Vero
[17] = Luminescence Cell-Based Dose Confirmation HTS to Identify Inhibitors of Platelet Dense Granule Release. [Related pubchem assays: 1663 (Primary HTS), 1678 (Summary of Project)]; assay type: functional
[18] = biological target: Luciferin 4-monooxygenase (Photinus pyralis, UniProt P08659); experiment: inhibition of purified Photinus pyralis luciferase – biochemical, luminescence, dose response (AID 1891)
Chain of Luciferin 4-monooxygenase (P08659 whole entry): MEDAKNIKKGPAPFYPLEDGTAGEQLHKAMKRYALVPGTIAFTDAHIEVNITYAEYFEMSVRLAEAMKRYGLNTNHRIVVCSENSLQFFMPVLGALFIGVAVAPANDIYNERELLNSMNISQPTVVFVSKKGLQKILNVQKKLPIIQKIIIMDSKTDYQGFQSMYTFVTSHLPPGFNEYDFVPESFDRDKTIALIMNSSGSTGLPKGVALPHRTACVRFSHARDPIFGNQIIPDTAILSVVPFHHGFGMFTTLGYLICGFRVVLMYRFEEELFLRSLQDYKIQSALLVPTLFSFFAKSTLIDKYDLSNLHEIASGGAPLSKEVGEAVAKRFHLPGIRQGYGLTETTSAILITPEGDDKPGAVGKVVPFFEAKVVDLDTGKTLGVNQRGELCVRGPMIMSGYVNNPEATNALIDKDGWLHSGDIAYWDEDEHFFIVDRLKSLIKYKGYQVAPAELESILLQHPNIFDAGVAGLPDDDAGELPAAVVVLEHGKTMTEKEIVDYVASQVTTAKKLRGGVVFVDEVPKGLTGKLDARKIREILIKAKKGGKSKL

Cytochrome P450 2C19 = Cytochrome P450 2C19 (Homo sapiens, UniProt P33261); experiment: Cytochrome panel assay with activity outcomes. Panel member name: p450-cyp2c19 Compounds with AC50 equal or less than 10 uM are considered active; assay type: functional; conditions: read-out: AC50
Chain of Cytochrome P450 2C19 (P33261 whole entry): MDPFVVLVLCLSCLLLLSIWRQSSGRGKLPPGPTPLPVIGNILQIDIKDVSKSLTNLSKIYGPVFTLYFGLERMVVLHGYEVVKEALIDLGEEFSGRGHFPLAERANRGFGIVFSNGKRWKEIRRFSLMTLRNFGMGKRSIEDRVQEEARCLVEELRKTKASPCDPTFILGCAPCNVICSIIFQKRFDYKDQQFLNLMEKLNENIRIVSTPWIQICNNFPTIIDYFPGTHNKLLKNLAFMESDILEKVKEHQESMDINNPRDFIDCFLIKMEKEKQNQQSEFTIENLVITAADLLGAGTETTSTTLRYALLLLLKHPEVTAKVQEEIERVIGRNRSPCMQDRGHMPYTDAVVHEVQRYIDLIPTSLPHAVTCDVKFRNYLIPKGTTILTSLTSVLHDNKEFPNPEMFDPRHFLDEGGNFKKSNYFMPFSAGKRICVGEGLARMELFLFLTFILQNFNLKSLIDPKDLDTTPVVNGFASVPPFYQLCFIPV

Cytochrome P450 1A2 = biological target: T6, Cytochrome P450 1A2 (Homo sapiens, UniProt P05177);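 also: PubChem cytochrome P450 panel assay, CYP1A2 panel member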
T6 sequence (P05177 whole entry): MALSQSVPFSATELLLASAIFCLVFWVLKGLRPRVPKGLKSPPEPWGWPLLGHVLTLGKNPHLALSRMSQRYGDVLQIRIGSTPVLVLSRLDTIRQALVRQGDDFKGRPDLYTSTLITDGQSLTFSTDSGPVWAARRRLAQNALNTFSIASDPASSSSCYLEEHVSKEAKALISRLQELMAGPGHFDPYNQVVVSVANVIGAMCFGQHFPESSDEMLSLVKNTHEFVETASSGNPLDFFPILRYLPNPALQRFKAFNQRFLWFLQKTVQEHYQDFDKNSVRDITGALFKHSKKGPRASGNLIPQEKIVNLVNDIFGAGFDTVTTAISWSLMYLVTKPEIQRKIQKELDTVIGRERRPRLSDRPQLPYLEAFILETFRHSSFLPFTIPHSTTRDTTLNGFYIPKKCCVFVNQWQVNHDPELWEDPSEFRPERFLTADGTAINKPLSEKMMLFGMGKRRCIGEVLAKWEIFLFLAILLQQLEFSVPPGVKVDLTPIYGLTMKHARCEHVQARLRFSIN

[19] = P. falciparum Dd2 growth inhibitors, dose response, SYBR Green, cherry-picked samples (AID 1159567); assay type: functional, cell-based
[20] = growth inhibition of yeast DHODH-expressing 3D7 parasites – SYBR Green, dry powder samples, dose response (AID 1159570); assay type: functional, cell-based;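 also: parasite growth measured after 72 hours of compound exposure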
[21] = Dd2 malaria parasite growth inhibition potency – SYBR Green, dry powder samples, dose response (AID 1159566); assay type: functional, cell-based;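 also: potency for growth inhibition with lower SYBR green DNA signal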
[22] = toxicity to human hepatoma HepG2 cells – cell-based, cherry-picked samples, cytotoxicity control, dose response (AID 1159577); assay type: functional
[23] = growth inhibition of PfATP4-mutant resistant parasites – NITD609-resistant line, SYBR Green, dry powder, dose response (AID 1159571); assay type: functional, cell-based;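 also: parasites synchronized at ring stage by sorbitol before testing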

CCOC(=O)c1ccc(NC(=O)CCc2c(C)nc3ncnn3c2C)cc1
IC50 [1]: > 100 µM (active)

Cc1nc(NC(=O)c2cc3c(C)nn(-c4ccccc4)c3s2)sc1C(=O)Nc1ccccc1
IC50 [2]: 1.22 µM (active) | IC50 (H9c2): > 79 µM (inactive)

C[C@H]1C[C@@H](C)C(=O)[C@@H]([C@H](O)CC2CC(=O)NC(=O)C2)C1
EC50 (cells): < 0.004 µM (active) | AC50 [3]: 4.92 µM (active) | EC50 [4]: < 0.1 µM (active) | AC50 [5]: 2.18 µM (active) | AC50 [6]: < 0.195 µM (active) | IC50 [7]: 1.03 µM (active) | EC50 [8]: 0.66 µM (active) | AC50 [9]: > 70 µM (inactive) | IC50 (Vero [10]): 0.43 µM (active) | AC50 [11]: 0.307 µM (active) | CC50 (Vero [12]): 0.96 µM (active)

O=C1CN(C(=O)COC(=O)c2oc3ccccc3c2COc2ccccc2)c2ccccc2N1
IC50 [13]: > 100 µM (active) | IC50 (Coagulation factor XII): > 50 µM (inactive)

Cc1ccc(Nc2nc(NCC3CCCO3)nc(N)c2[N+](=O)[O-])cc1C (stereo not given)
IC50 [14]: > 111 µM (not active) | IC50 [15]: 6.09 µM (active)

CCCc1nn(C)c(C(=O)Nc2ccc(CC)cc2)c1Cl
IC50 [1]: > 100 µM (active)

CCOc1cc(C(=O)OCC(=O)c2c(N)n(C)c(=O)n(C)c2=O)cc(OCC)c1OCC
IC50 [14]: > 111 µM (not active) | IC50 [15]: 19.3 µM (not active)

COc1ccc(C(=O)Nc2ccc(O)c3c(=O)cc(-c4cccc(Cl)c4)oc23)cc1
IC50 (Vero [10]): > 100 µM (active) | CC50 (Vero [12]): 2.74 µM (active)

COC(=O)c1c(NC(=O)C(Cl)Cl)sc2c1C(C(=O)OC)CC2 (stereo not given)
IC50 (Vero [10]): 27.8 µM (active) | CC50 (Vero [12]): 34.8 µM (active)

CCc1nnc(NC(=O)c2ccc(S(=O)(=O)N(CC(C)C)CC(C)C)cc2)o1
CC50 [16]: > 40 µM (active)

CC(OC(=O)/C=C/c1ccco1)C(=O)NC1CCCCC1 (stereo not given)
IC50 [13]: > 100 µM (active)

COc1ccccc1NC(=O)c1cc2ccc(O)cc2o/c1=N\O
IC50 [13]: > 100 µM (active) | EC50 [17]: 6.14 µM (active) | CC50 [16]: > 40 µM (active) | EC50 [18]: 1.03 µM (active)

O=C(N/N=C\c1ccc(-c2ccccc2[N+](=O)[O-])o1)C1COc2cc3ccccc3cc2O1 (stereo not given)
IC50 [2]: > 20 µM (inactive) | AC50 (Cytochrome P450 2C19): 1.12 µM (inconclusive) | AC50 (Cytochrome P450 1A2): 3.55 µM (inconclusive)

COc1ccc(NC(=O)N(C)C[C@@H]2Oc3c(NC(=O)c4nc5ccccc5s4)cccc3C(=O)N([C@@H](C)CO)C[C@H]2C)cc1
AC50 [19]: 1.96 µM (active) | AC50 [20]: 0.499 µM (active) | AC50 [21]: 1.3 µM (active) | AC50 [22]: > 39 µM (inactive) | AC50 [23]: 0.606 µM (active)

COc1ccc2c3c(n(C)c2c1)[C@@H](CO)N(C(=O)C1CCC1)CC31CN(C(=O)Nc2cccc(F)c2)C1
AC50 [19]: 2.35 µM (active) | AC50 [20]: 0.515 µM (active) | AC50 [21]: 0.779 µM (active) | AC50 [23]: 0.535 µM (active)

N#C[C@@H]1[C@H](c2ccc(C#CC3CCCCC3)cc2)[C@@H](CO)N1C(=O)Nc1ccc(F)cc1
AC50 [19]: 7.33 µM (active) | AC50 [22]: 14 µM (active)
